Experimental data reported in ChEMBL document CHEMBL5120875, “Discovery of diarylheptanoids that activate α7 nAchR-JAK2-STAT3 signaling in macrophages with anti-inflammatory activity in vitro and in vivo” (Bioorg Med Chem, 2022).
pIC50: −log10 of the molar value. Blank lines part the entries; values can stand above or below the molecule they belong to. The source made the active and inactive calls. The calls are words filed in the database; no cut-off is given here.

Assays:
RAW264.7 [1] = assay: Antiinflammatory activity in mouse RAW264.7 cells assessed as inhibition of LPS-induced IL-1beta production preincubated for 2 hrs followed by LPS-stimulation for 24 hrs by ELISA; format: functional, cell-based; conditions: dose 0.2-5 µM, time 26.0 hrs, DDE = dose-dependent effect
RAW264.7 [2] = assay: Inhibition of LPS-induced NO production in mouse RAW264.7 cells at 5 uM preincubated with compound for 2 hrs followed by LPS stimulation for 24 hrs by Griess reagent based assay relative to control; format: functional; conditions: time 26 hrs
RAW264.7 [3] = assay: Antiinflammatory activity in mouse RAW264.7 cells assessed as inhibition of LPS-induced IL-6 production preincubated for 2 hrs followed by LPS-stimulation for 24 hrs by ELISA; format: functional, cell-based; conditions: dose 0.2-5 µM, time 26.0 hrs, DDE = dose-dependent effect
RAW264.7 [4] = assay: (§1) Antiinflammatory activity in LPS-induced mouse RAW264.7 cells assessed as enhancement of STAT3 phosphorylation at 0.2 to 5 uM pretreated with alpha7 nAChR antagonist alpha-bungarotoxin for 1 hr followed by compound treatment for 2 hrs and further stimulated with LPS for 30 mins by Western blot analysis; format: functional, cell-based; conditions: dose 0.2-5 µM, time 2.5 hrs
RAW264.7 [5] = assay: Antiinflammatory activity in mouse RAW264.7 cells assessed as decrease in LPS-induced IL-6 mRNA expression at 0.2 to 5 uM preincubated for 2 hrs followed by LPS-stimulation for 24 hrs by qRT-PCR analysis; format: functional, cell-based; conditions: dose 0.2-5 µM, time 26.0 hrs
THP-1 [6] = assay: Antiinflammatory activity in LPS/IFNgamma-stimulated human THP-1 monocytes assessed as inhibition of NO production pretreated with PMA for 24 hrs and incubated alpha-bungarotoxin for 1 hr followed by compound addition for 2 hrs and further stimulated with LPS/INF-gamma for 22 hrs by Griess reagent based assay; format: functional, cell-based
RAW264.7 [7] = assay: Activation of NF-kappaB signalling pathway in mouse RAW264.7 cells assessed as decrease in LPS-induced AKT phosphorylation at 0.2 to 5 uM pretreated with compound for 2 hrs followed by LPS-stimulation for 30 mins by Western blot analysis; format: cell-based; conditions: filed as activator, dose 0.2-5 µM, time 2.5 hrs
RAW264.7 [8] = assay: Antiinflammatory activity in mouse RAW264.7 cells assessed as inhibition of LPS-induced iNOS protein expression preincubated for 2 hrs followed by LPS stimulation for 24 hrs by qRT-PCR analysis; format: functional, cell-based; conditions: time 26.0 hrs, DDE = dose-dependent effect
RAW264.7 [9] = assay: Antiinflammatory activity in mouse RAW264.7 cells assessed as inhibition of LPS-induced iNOS mRNA expression preincubated for 2 hrs followed by LPS stimulation for 24 hrs by qRT-PCR analysis; format: functional, cell-based; conditions: dose 0.2-5 µM, time 26.0 hrs, DDE = dose-dependent effect
RAW264.7 [10] = assay: Antiinflammatory activity in mouse RAW264.7 cells assessed as decrease in LPS-induced IL-1beta mRNA expression at 0.2 to 5 uM preincubated for 2 hrs followed by LPS-stimulation for 24 hrs by qRT-PCR analysis; format: functional, cell-based; conditions: dose 0.2-5 µM, time 26.0 hrs
Peritoneal macrophage = assay: Antiinflammatory activity in mouse peritoneal macrophages assessed as reduction in LPS-induced NO production at 0.2 to 5 uM preincubated for 2 hrs followed by LPS-stimulation for 22 hrs by Griess reagent based assay; format: functional, cell-based; conditions: dose 0.2-5 µM, time 24.0 hrs
RAW264.7 [11] = assay: Cytotoxicity against mouse RAW264.7 cells assessed as effect on cell viability at 5 uM incubated for 24 hrs by alamar blue reagent based fluorescence assay; format: toxicity; conditions: raw264.7, 24 h
RAW264.7 [12] = assay: Antiinflammatory activity in LPS-induced mouse RAW264.7 cells assessed as enhancement of STAT3 phosphorylation pretreated with compound for 2 hrs followed by LPS-stimulation and measured after 30 mins by Western blot analysis; format: functional, cell-based; conditions: dose 0.2-5 µM, time 2.5 hrs, DDE = dose-dependent effect
RAW264.7 [13] = assay: Activation of NF-kappaB signalling pathway in mouse RAW264.7 cells assessed as suppression of LPS-induced IkappaBalpha degradation pretreated with compound for 2 hrs followed by LPS-stimulation for 30 mins by Western blot analysis; format: cell-based; conditions: filed as activator, dose 0.2-5 µM, time 2.5 hrs, DDE = dose-dependent effect
THP-1 [14] = assay: Antiinflammatory activity in human THP-1 monocytes assessed as reduction in LPS/Interferon-gamma NO production at 0.2 to 5 uM pretreated with PMA for 24 hrs followed by compound addition 2 hrs and stimulated with LPS/Interferon-gamma for 22 hrs by Griess reagent based assay; format: functional, cell-based; conditions: dose 0.2-5 µM
[15] = target: T1, Signal transducer and activator of transcription 1 (Mus musculus) (UniProt P42225); assay: Inhibition of LPS-induced STAT1 phosphorylation in mouse RAW264.7 cells pretreated with compound for 2 hrs followed by LPS-stimulation and measured after 30 mins by immunoblot analysis; format: cell-based; conditions: dose 0.2-5 µM, time 2.5 hrs, DDE = dose-dependent effect
T1 sequence (whole entry): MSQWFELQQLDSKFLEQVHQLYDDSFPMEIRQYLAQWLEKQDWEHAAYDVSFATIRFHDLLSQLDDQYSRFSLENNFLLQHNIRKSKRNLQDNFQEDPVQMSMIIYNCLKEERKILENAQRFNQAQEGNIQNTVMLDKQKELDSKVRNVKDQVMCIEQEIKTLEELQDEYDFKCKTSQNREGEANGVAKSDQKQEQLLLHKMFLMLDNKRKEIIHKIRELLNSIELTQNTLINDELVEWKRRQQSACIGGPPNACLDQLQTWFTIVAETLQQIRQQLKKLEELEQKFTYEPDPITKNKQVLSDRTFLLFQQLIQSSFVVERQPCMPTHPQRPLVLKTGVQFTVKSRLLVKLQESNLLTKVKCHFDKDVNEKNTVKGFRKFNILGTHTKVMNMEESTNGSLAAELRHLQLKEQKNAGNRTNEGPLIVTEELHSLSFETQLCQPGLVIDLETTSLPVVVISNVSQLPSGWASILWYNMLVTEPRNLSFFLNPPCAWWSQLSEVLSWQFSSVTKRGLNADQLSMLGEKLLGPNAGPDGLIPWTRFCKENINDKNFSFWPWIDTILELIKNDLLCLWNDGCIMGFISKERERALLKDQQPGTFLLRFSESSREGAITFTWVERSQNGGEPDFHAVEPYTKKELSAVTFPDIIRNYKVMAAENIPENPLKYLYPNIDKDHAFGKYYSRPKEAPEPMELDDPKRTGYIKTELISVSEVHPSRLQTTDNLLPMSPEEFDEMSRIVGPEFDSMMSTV

RAW264.7 [16] = assay: Inhibition of LPS-induced NO production in mouse RAW264.7 cells preincubated with compound for 2 hrs followed by LPS stimulation for 24 hrs by Griess reagent based assay; format: functional, cell-based
[17] = target: Neuronal acetylcholine receptor subunit alpha-7 (Mus musculus) (UniProt P49582); assay: Binding affinity to alpha7 nAChR in mouse RAW264.7 cells assessed as increase in thermal stability at 200 uM incubated for 30 min by CETSA; format: cell-based; conditions: filed as agonist
RAW264.7 [18] = assay: Antiinflammatory activity in LPS-induced mouse RAW264.7 cells assessed as enhancement of JAK2 phosphorylation pretreated with compound for 2 hrs followed by LPS-stimulation and measured after 30 mins by Western blot analysis; format: functional, cell-based; conditions: dose 0.2-5 µM, time 2.5 hrs, DDE = dose-dependent effect
RAW264.7 [19] = assay: as §1, with “JAK2” for “STAT3”; format: functional, cell-based; conditions: dose 0.2-5 µM, time 2.5 hrs
RAW264.7 [20] = assay: Activation of NF-kappaB signalling pathway in mouse RAW264.7 cells assessed as suppression of LPS-induced IkappaBalpha phosphorylation pretreated with compound for 2 hrs followed by LPS-stimulation for 30 mins by Western blot analysis; format: cell-based; conditions: filed as activator, dose 0.2-5 µM, time 2.5 hrs
RAW264.7 [21] = assay: Antiinflammatory activity in mouse RAW264.7 cells assessed as inhibition of LPS-induced IL-6 production at 10 uM preincubated for 2 hrs followed by LPS-stimulation for 24 hrs by ELISA; format: functional, cell-based; conditions: time 26.0 hrs
RAW264.7 [22] = assay: Antiinflammatory activity in mouse RAW264.7 cells assessed as inhibition of LPS-induced IL-1beta production at 10 uM preincubated for 2 hrs followed by LPS-stimulation for 24 hrs by ELISA; format: functional, cell-based; conditions: time 26.0 hrs
RAW264.7 [23] = assay: Antiinflammatory activity in LPS-induced mouse RAW264.7 cells assessed as enhancement of STAT3 phosphorylation at 20 uM pretreated with compound for 2 hrs followed by LPS-stimulation and measured after 30 mins by Western blot analysis; format: functional, cell-based; conditions: time 2.5 hrs
RAW264.7 [24] = assay: Antiinflammatory activity in LPS-induced mouse RAW264.7 cells assessed as enhancement of JAK2 phosphorylation at 20 uM pretreated with compound for 2 hrs followed by LPS-stimulation and measured after 30 mins by Western blot analysis; format: functional, cell-based; conditions: time 2.5 hrs
RAW264.7 [25] = assay: Antiinflammatory activity in LPS-induced mouse RAW264.7 cells assessed as enhancement of STAT3 phosphorylation at […] pretreated with compound for 2 hrs followed by LPS-stimulation and measured after 30 mins by Western blot analysis; format: functional, cell-based; conditions: time 2.5 hrs
RAW264.7 [26] = assay: Antiinflammatory activity in LPS-induced mouse RAW264.7 cells assessed as enhancement of JAK2 phosphorylation at […] pretreated with compound for 2 hrs followed by LPS-stimulation and measured after 30 mins by Western blot analysis; format: functional, cell-based; conditions: time 2.5 hrs

Neuronal acetylcholine receptor subunit alpha-7 (Mus musculus), sequence (P49582 whole entry): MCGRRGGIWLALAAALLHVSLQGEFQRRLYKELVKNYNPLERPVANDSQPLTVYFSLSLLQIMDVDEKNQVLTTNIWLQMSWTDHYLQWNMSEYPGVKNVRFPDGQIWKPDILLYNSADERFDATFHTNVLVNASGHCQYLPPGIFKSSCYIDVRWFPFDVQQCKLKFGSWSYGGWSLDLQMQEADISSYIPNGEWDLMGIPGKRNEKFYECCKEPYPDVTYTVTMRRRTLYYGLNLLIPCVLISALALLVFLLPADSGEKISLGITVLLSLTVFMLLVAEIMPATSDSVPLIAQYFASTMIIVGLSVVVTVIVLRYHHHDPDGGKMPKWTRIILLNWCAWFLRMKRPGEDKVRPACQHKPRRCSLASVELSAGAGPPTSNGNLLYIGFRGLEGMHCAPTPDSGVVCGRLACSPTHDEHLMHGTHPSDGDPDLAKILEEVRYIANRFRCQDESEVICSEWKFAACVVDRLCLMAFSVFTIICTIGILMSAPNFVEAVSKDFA

- pIC50 (RAW264.7 [16]): 6.39
Structure (SMILES): COc1cccc(/C=C/C=C/C(=O)/C=C/c2cccc(O)c2)c1
- inhibition at 5 µM (RAW264.7 [2]): 92.3%
- Activity (RAW264.7 [11]): Non-Toxic

- pIC50 (RAW264.7 [16]): 6.01
Structure (SMILES): COc1ccc(/C=C/C=C/C(=O)/C=C/c2cccc(O)c2)c(OC)c1
- inhibition at 5 µM (RAW264.7 [2]): 82.3%
- Activity (RAW264.7 [11]): Non-Toxic

- pIC50 (RAW264.7 [16]): 6.48
Structure (SMILES): CC(=O)Oc1ccc(CC[C@@H](O)CCCCc2ccccc2)cc1OC(C)=O
- inhibition at 5 µM (RAW264.7 [2]): 99.2%
- Activity (RAW264.7 [11]): Non-Toxic

- pIC50 (RAW264.7 [16]): 6.24
Structure (SMILES): O=C(/C=C/C=C/c1cccc(O)c1)/C=C/c1cccc(O)c1
- inhibition at 5 µM (RAW264.7 [2]): 95.9%
- Activity (RAW264.7 [11]): Non-Toxic

- pIC50 (RAW264.7 [16]): 6.43
Structure (SMILES): CC(=O)Oc1ccc(CCC(=O)CCCCc2ccccc2)cc1OC(C)=O
- inhibition at 5 µM (RAW264.7 [2]): 128%
- Activity (RAW264.7 [11]): Non-Toxic

More lines, now with the values behind:

Structure (SMILES): COc1ccc(/C=C/C=C/C(=O)/C=C/c2ccc(OC)c(O)c2)c(OC)c1
- Activity (RAW264.7 [1]): Dde
- inhibition at 5 µM (RAW264.7 [2]): 106%
- Activity (RAW264.7 [3]): Dde
- Activity (RAW264.7 [4]): Active
- Activity (RAW264.7 [5]): Active
- Activity (THP-1 [6]): Active
- Activity (RAW264.7 [7]): Active
- Activity (RAW264.7 [8]): Dde
- Activity (RAW264.7 [9]): Dde
- Activity (RAW264.7 [10]): Active
- Activity (Peritoneal macrophage): Active
- Activity (RAW264.7 [11]): Non-Toxic
- Activity (RAW264.7 [12]): Dde
- Activity (RAW264.7 [13]): Dde
- Activity (THP-1 [14]): Active
- inhibition [15]: Dde
- pIC50 (RAW264.7 [16]): 6.26
- Activity [17]: Active
- Activity (RAW264.7 [18]): Dde
- Activity (RAW264.7 [19]): Active
- Activity (RAW264.7 [20]; DDE = dose-dependent effect): Dde

Structure (SMILES): Cc1ccc(S(=O)(=O)/C=C/C#N)cc1
- Activity (RAW264.7 [21]): Active
- Activity (RAW264.7 [22]): Active
- Activity (RAW264.7 [20]): Active

Structure (SMILES): CC(=O)OCC[N+](C)(C)C
- Activity (RAW264.7 [23]): Active
- Activity (RAW264.7 [24]): Active
- Activity (RAW264.7 [25]): Active
- Activity (RAW264.7 [26]): Active

Structure (SMILES): Oc1ccc(CCC(O)/C=C/C=C/c2ccccc2)cc1O (single isomer, unassigned)
- inhibition at 5 µM (RAW264.7 [2]): 12.3%
- Activity (RAW264.7 [11]): Non-Toxic
